Laboratory results as given in US5760036A, “Aminediol protease inhibitors” (E. R. Squibb & Sons, Inc., priority 1995, dated 1998).
Like-named read-outs stand apart in the source and are kept apart here.

Experiments:
[1] = target: T1, HIV protease (Human immunodeficiency virus type 1 group M subtype B, UniProt P04585); test: HIV Protease Assay; assay type: biochemical
T1 construct: and purified protease
Outline: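 At a single final concentration of 10 μM (4% DMSO), inhibitors were added to a 30-minute, 37° C reaction of purified enzyme with 450 μM H2N-Val-Ser-Gln-Asn-(β-naphthyl-alanine)-Pro-Val-Ile-OH at pH 5.5 (sodium acetate, BSA). Hydrolysis was quantified by reverse-phase HPLC with 220 nm detection after acid quench.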

[2] = system: RF strain of HIV (CEM-SS cells); test: Cell Culture Anti-HIV Activity (cell viability, formazan); assay type: cell-based; conditions: CEM-SS cells, RF strain of HIV, multiplicity of infection 0.04, 6 days at 37° C., 450 nm, read-out: HIV (CEM Cells) IC50
Outline: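 Half-log compound dilutions added to CEM-SS cells (5000/well) carrying HIV RF (MOI 0.04), 6 days, 37° C. Cell protection measured as formazan from tetrazolium, A450. IC50: drug level restoring infected-cell formazan to 50% of the uninfected untreated control.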

[3] = pH 5.5, 10 μM inhibitor, 4% DMSO, 450 μM substrate, pH 5.5, 30 minutes at 37° C., RP-HPLC, read-out: HIV Protease % Inhibition at 10 μM
[4] = Human immunodeficiency virus 1, CEM-SS, 144 h
[5] = pH 5.5, read-out: HIV Protease % Inhibition at 10 μM

Compound	inhibition at 10 µM [1, 3]	inhibition at 10 µM [1, 5]	IC50 [2, 4]	IC50 [2]
CC(C)(C)OC(=O)N[C@@H](Cc1ccccc1)[C@H](O)CNC[C@@H](O)[C@H](Cc1ccccc1)NC(=O)[C@@H](NC(=O)OCc1nc2ccccc2o1)C(C)(C)C [Compound 257, [S-[1R*,2S*(2S*,3R*)]]-[2,2-Dimethyl-1-[[[3-[[3-[[(1,1-dimethylethoxy)carbonyl]amino]-2-hydroxy-4-phenylbutyl]-amino]-2-hydroxy-1-(phenylmethyl)propyl]amino]-carbonyl]propyl]carbamic acid, (2-benzoxazolyl)methyl ester]	99%		30 nM	
CC(C)(C)OC(=O)N[C@@H](Cc1ccccc1)[C@H](O)CNC[C@@H](O)[C@H](Cc1c[nH]c2ccccc12)NC(=O)OC(C)(C)C [Compound 23, [1S-[1R*,2S*(2S*,3R*)]]-[3-[[3-[[(1,1-Dimethylethoxy)carbonyl]amino]-2-hydroxy-4-(1H-indol-3-ylmethyl)butyl]amino]-2-hydroxy-1-(phenylmethyl)propyl]carbamic acid, 1,1-dimethylethyl ester]	98%		450 nM	
CC(C)(C)OC(=O)N[C@@H](Cc1ccccc1)[C@H](O)CNC[C@@H](O)[C@H](Cc1ccccc1)NC(=O)OC(C)(C)CNC=O [Compound 236, [1S-(1R*,2S*)]-[Iminobis[2-hydroxy-1-(phenylmethyl)-3,1-propanediyl]]biscarbamic acid, 2-(formylamino)-1,1-dimethylethyl 1,1-dimethylethyl ester]	89%		700 nM	
CC[C@H](C)[C@H](NC(=O)OCc1ccccc1)[C@H](O)CNC[C@@H](O)[C@H](Cc1ccccc1)NC(=O)OC(C)(C)C [Compound 16, [2S-[2R*,[S*(2S*,3R*)]]-[1-Hydroxy-3-[[(1,1-dimethylethoxy)carbonyl]-amino]-2-hydroxy-4-phenylbutyl]amino]ethyl-2-methylbutyl]carbamic acid, phenylmethyl ester]	83%		≥ 2300 nM	
CC(C)(C)OC(=O)N[C@@H](Cc1ccccc1)[C@H](O)CNC[C@@H](O)[C@H](Cc1ccccc1)NC(=O)OC(C)(C)CCCO [Compound 229, [R-(R*,S*)]-[Iminobis[2-hydroxy-1-(phenylmethyl)-3,1-propanediyl)]biscarbamic acid, 4-hydroxy-1,1-dimethyl-butyl 1,1-dimethylethyl ester]	82%		600 nM	
CC(C)(C)OC(=O)N[C@@H](CC1CCCCC1)[C@H](O)CNC[C@@H](O)[C@H](CC1CCCCC1)NC(=O)OC(C)(C)C [Compound 14, [R-(R*,S*)]-[Iminobis[1-(cyclohexylmethyl)-2-hydroxy-3,1-propanediyl]]-biscarbamic acid, bis(1,1-dimethylethyl) ester]		100%	1100 nM	
CN(C(=O)OC(C)(C)C)[C@@H](Cc1ccccc1)[C@H](O)CNC[C@@H](O)[C@H](Cc1ccccc1)NC(=O)OC(C)(C)C [Compound 132, [1S-[1R*,2S*(2S*,3R*)]]-3-[[(1,1-Dimethylethoxy)carbonyl]amino]-2-hydroxy-4-phenylbutyl]amino]-2-hydroxy-1-(phenylmethyl)-propyl]methylcarbamic acid, 1,1-dimethylethyl ester]	65%		> 3000 nM	
C[C@H](O)[C@H](NC(=O)OCc1ccccc1)C(=O)N[C@@H](Cc1ccccc1)[C@H](O)CNC[C@@H](O)[C@H](Cc1ccccc1)NC(=O)OC(C)(C)C (relative stereo) [Compound 205, [1R*,2S*(2S*,3R*)]-N-[3-[[3-[[(1,1-Dimethylethoxy)carbonyl]amino]-2-hydroxy-4-phenylbutyl]amino]-2-hydroxy-1-(phenylmethyl)propyl]-N^2-[(phenylmethoxy)carbonyl]-L-allothreoninamide]	98%		70 nM	
CC(C)[C@H](NC(=O)CCn1[nH]c2ccccc2c1=O)C(=O)N[C@@H](Cc1ccccc1)[C@H](O)CNC[C@@H](O)[C@H](Cc1ccccc1)NC(=O)OC(C)(C)C (relative stereo) [Compound 250, [1R*,2S*(2S*,3R*)]-N^2-[3-(1,3-Dihydro-3-oxo-2H-indazol-2-yl)-1-oxopropyl]-N-[3-[[3-[[(1,1-dimethylethoxy)carbonyl]amino]-2-hydroxy-4-phenylbutyl]amino]-2-hydroxy-1-(phenylmethyl)propyl]-L-valinamide]	100%		1500 nM	
CC(C)(C)OC(=O)N[C@@H](Cc1ccccc1)[C@H](O)CNC[C@@H](O)[C@H](Cc1ccccc1)NC(=O)O[C@H]1CCOC1 [Compound 331, [1S-(1R*,2S*,3R*)]-[Iminobis[2-hydroxy-1-(phenylmethyl)-3,1-propanediyl]]bis[carbamic acid], 3-tetrahydrofuranyl 1,1-dimethylethyl ester]	99%		60 nM	

The next lines start with results.

inhibition at 10 µM [1, 3]	inhibition at 10 µM [1, 5]	Compound	IC50 [2, 4]	IC50 [2]
	94%	CC(C)(C)OC(=O)N[C@@H](Cc1ccccc1)[C@H](O)CNC[C@@H](O)[C@H](Cc1ccccc1)NC(=O)C(C)(C)O [Compound 278, [1S-[1R*,2S*(2S*,3R*)]]-[2-Hydroxy-3-[[2-hydroxy-3-[(2-hydroxy-2-methyl-1-oxoproply)amino]-4-phenylbutyl]amino]-1-(phenylmethyl)propyl]carbamic acid, 1,1-dimethylethyl ester]	840 nM	
100%		CC1(C)CCCC1(O)C(=O)N[C@@H](Cc1ccccc1)[C@H](O)CNC[C@@H](O)[C@H](Cc1ccccc1)NC(=O)C1(O)CCCC1(C)C (single isomer, unassigned; isomer a) [Compound 336]		40 nM
98%		CC(C)[C@H](NC(=O)CCc1nc2ccccc2[nH]1)C(=O)N[C@@H](Cc1ccccc1)[C@H](O)CNC[C@@H](O)[C@H](Cc1ccccc1)NC(=O)OC(C)(C)C [Compound 103, [S-[1R*,2S*(2S*,3R*)]-N^2-[3-(1H-Benzimidazol-2-yl)-1-oxo-propyl]-N-[3-[[3-[[(1,1-di-methylethoxy)carbonyl]amino-4-phenylbutyl]amino]-2-hydroxy-1-(phenylmethyl)propyl]-L-valinamide]	1700 nM	
99%		CC(C)(C)OC(=O)N[C@@H](Cc1ccccc1)[C@H](O)CNC[C@@H](O)[C@H](Cc1ccccc1)NC(=O)[C@H](CC(N)=O)NC(=O)OCc1ccccc1 [Compound 53, [1S-[1R*,2S*(2S*3R*)]]-N-[3-[[3[[(1,1-Dimethylethoxy)-carbonyl]amino]-2-hydroxy-4-phenylbutyl]amino]-2-hydroxy-1-(phenylmethyl)propyl]-N^2 [(phenylmethoxy)-carbonyl]-L-aspartamide]	540 nM	
97%		CC(C)(C)OC(=O)N[C@@H](Cc1ccccc1)[C@H](O)CNC[C@@H](O)[C@H](Cc1ccccc1)NC(=O)OC(C)(C)CC#CCc1ccccc1 [Compound 167, [1S-(1R*,2S*))]-[Iminobis[2-hydroxy-1-(phenylmethyl)-3,1-propanediyl]biscarbamic acid, 1,1-dimethylethyl 1,1]-dimethyl-5-phenyl-3-pentynyl ester]	> 1800 nM	
0%		CC(C)(C)OC(=O)N[C@@H](Cc1ccccc1)C(O)CN(Cc1ccccc1)CC(O)[C@H](Cc1ccccc1)NC(=O)OC(C)(C)C (stereo partly drawn) [Compound 194, [2S-(2R*,2R*)]-[[(Phenylmethyl)-imino]bis[2-hydroxy-4-phenyl-3,1-butanediyl]]biscarbamic acid, bis(1,1-dimethylethyl)ester]	> 5000 nM	
91%		CC(OC(=O)N[C@@H](Cc1ccccc1)[C@H](O)CNC[C@@H](O)[C@H](Cc1ccccc1)NC(=O)OC(C)(C)C)c1cccnc1 (stereo partly drawn) [Compound 258, [R-(R*,S*)]-[Iminobis[2-hydroxy-1-(phenylmethyl)-3,1-propanediyl)]biscarbamic acid. 1,1-dimethylethyl-1-(3-pyridinyl)ethyl ester]	1500 nM	
93%		CC(C)(C)OC(=O)N[C@@H](Cc1ccccc1)[C@H](O)CNC[C@@H](O)[C@H](Cc1ccccc1)NC(=O)OC(C)(C)CCCNC(=O)OCc1ccccc1 [Compound 150, [1S-(1R*,2S*)]-[Iminobis[2-hydroxy-1-(phenylmethyl)-3,1-propanediyl)]biscarbamic acid, 1,1-dimethylethyl 1,1-dimethyl-4-[[(phenylmethoxy)carbonyl]amino]butyl ester]	> 4000 nM	
99%		COCCOc1ccc(C[C@H](NC(=O)OC(C)(C)C)[C@H](O)CNC[C@@H](O)[C@H](Cc2ccccc2)NC(=O)OC(C)(C)CO)cc1 [Compound 299, [1S-[1R*, 2S*(2S*,3R*)]-[3-[[(1,1-Dimethylethoxy)carbonyl]amino]-2-hydroxy-4-[4-(2-methoxyethoxy)phenyl]butyl]amino]-2-hydroxy-1-(phenylmethyl)propyl]carbamic acid, 1-(hydroxymethyl)-1-methylethyl ester]	240 nM	
100%		CC(C)(C)OC(=O)N[C@@H](Cc1ccccc1)[C@H](O)CNC[C@@H](O)[C@H](Cc1ccccc1)NC(=O)OC1(C)CCCC1 [Compound 159, [1S-(1R*,2S*)]-[Iminobis[2-hydroxy-1-(phenylmethyl)-3,1-propanediyl]]bis-[carbamic acid], 1,1-dimethylethyl 1-methyl-cyclopentyl ester]	1300 nM	
